From patent US8076329B2, “Histamine H3-receptor ligands and their therapeutic applications” (Bioprojet, priority 2005, dated 2011)
Several values for one entry are separate records, joined by “and”; a condition that tells them apart may be missing. Equal entries are not always repeated. Where two headings read alike, the source gives them in different places.

What was measured:
[1] = biological target: CYP2D6 (Homo sapiens, UniProt P10635); assay: Cytochrome inhibition, fluorometric microtiter plate assay; assay type: in vitro ADME; details: human recombinant CYP2D6, substrate AMMC, compounds of the invention
Chain of CYP2D6 (P10635 whole entry, canonical isoform): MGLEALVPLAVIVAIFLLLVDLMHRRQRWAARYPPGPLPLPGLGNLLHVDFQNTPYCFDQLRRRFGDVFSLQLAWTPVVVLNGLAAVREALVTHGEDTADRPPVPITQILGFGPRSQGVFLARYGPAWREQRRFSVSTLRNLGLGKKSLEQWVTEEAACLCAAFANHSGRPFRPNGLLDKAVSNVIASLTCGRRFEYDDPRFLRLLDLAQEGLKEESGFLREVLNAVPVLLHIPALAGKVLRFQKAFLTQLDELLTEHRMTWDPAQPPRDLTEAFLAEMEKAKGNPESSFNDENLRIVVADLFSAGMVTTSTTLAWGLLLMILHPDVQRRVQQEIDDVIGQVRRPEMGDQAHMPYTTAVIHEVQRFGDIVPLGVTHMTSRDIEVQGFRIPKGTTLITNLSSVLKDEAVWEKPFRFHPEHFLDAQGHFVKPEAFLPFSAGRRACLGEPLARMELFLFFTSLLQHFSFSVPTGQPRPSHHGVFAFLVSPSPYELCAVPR
Procedure: (§1) The ability of drug in human to inhibit the catalytic activity of cytochrome P-450 isoforms was assayed using microtiter plate-based, fluorometric assays for the activities of the five human major CYP forms. Inhibition potential was determined in vitro after incubation of fluorescent model substrates over various incubation time with human recombinant cytochrome isoforms in the absence or in presence of increasing concentrations of test molecules (from 1 nM to 100 μM), in comparison with specific CYP isoform inhibitors.
(§2) Incubation of drug was carried out at 37° C.±0.5° C. under agitation in the presence of human recombinant cytochrome P-450 isoforms and a NADPH generating system. The incubation conditions for each cytochrome isoform were as follows: […]

[2] = biological target: CYP3A4 (Homo sapiens, UniProt P08684); assay: as above; assay type: in vitro ADME; details: human recombinant CYP3A4, substrate BFC, compounds of the invention
Chain of CYP3A4 (P08684 whole entry): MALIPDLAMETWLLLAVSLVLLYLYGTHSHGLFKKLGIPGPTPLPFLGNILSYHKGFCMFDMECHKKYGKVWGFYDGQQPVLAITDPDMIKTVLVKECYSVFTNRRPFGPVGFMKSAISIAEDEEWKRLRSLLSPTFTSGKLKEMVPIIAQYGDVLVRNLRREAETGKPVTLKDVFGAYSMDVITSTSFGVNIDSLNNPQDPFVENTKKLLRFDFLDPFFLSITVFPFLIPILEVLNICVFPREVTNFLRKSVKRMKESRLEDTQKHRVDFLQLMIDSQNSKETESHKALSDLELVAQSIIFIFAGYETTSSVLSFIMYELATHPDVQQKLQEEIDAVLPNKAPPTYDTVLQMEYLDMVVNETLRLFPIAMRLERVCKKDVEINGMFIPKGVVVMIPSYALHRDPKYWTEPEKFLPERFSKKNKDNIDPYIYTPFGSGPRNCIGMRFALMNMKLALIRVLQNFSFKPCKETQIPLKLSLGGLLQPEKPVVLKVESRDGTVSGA
Procedure: as §1, §2

[3] = read-out: CYP2D6 cytochrome inhibition (IC50, concentrations in μM for 50% inhibition)
[4] = read-out: CYP3A4 cytochrome inhibition (IC50, concentrations in μM for 50% inhibition)
[5] = CYP2D6 cytochrome inhibition (IC50, concentrations in μM for 50% inhibition)
[6] = CYP3A4 cytochrome inhibition (IC50, concentrations in μM for 50% inhibition)

IC50 [1, 5] [µM]	IC50 [2, 6]	IC50 ([2]; human, recombinant human CYP3A4, probe BFC, CYP3A4 cytochrome inhibition (IC50, concentrations in μM for 50% inhibition)) [µM]	Molecule	IC50 [1, 3] [µM]	IC50 [2, 4]
			1-{3-[4-(cis-4-dimethylaminocyclohex-1-yl)phenoxy]propyl}piperidine, dioxalate and 1-{3-[4-(trans-4-dimethylaminocyclohex-1-yl)phenoxy]propyl}-piperidine, dioxalate [Example 18]	> 10	43 µM and 50 µM
			1-{3-[4-(cis-4-morpholinocyclohex-1-yl)phenoxy]propyl}piperidine, dihydrochloride and 1-{3-[4-(trans-4-morpholinocyclohex-1-yl)phenoxy]-propyl}piperidine, dihydro-chloride [Example 40]	> 100	66 µM
> 10	> 10 µM		CC1CCCN(CCCOc2ccc(C(C)(C)O)cc2)C1 (racemic) [Example 6, (RS)-1-{3-[4-(1-hydroxy-1-methylethyl)phenoxy]propyl}-3-methylpiperidine]		
14	8 µM		CC1CCCN(CCCOc2ccc(-c3ccccc3)cc2)C1 (racemic) [Example 26, (RS)-1-{3-[(biphenyl-4-yl)oxy]propyl}-3-methylpiperidine]		
> 10	> 10 µM		C[C@H]1C[C@H](C)CN(CCCOc2ccc(C(=O)N3CCCC3)cc2)C1 (relative stereo) [Example 2, trans-1-{3-[4-(N,N-tetramethylenecarbamoyl)phenoxy]propyl}-3,5-dimethylpiperidine]		
> 10	67 µM		C[C@@H]1C[C@@H](C)CN(CCCOc2ccc(C(C)(C)O)cc2)C1 (relative stereo) [Example 5, trans-1-{3-[4-(1-hydroxy-1-methylethyl)phenoxy]propyl}-3,5-dimethylpiperidine]		
47	30 µM		C=C(C)c1ccc(OCCCN2C[C@@H](C)C[C@H](C)C2)cc1 (relative stereo) [Example 10, trans-1-{3-(4-isopropenylphenoxy)propyl]-3,5-dimethylpiperidine]		
> 10	> 10 µM		C[C@@H]1C[C@@H](C)CN(CCCOc2ccc(Oc3ccccc3)cc2)C1 (relative stereo) [Example 14, trans-1-{3-[4-(phenoxy)phenoxy]propyl}-3,5-dimethylpiperidine]		
> 100	22 µM		C[C@@H]1C[C@@H](C)CN(CCCOc2ccc(C3=NCCCC3)cc2)C1 (relative stereo) [Example 16, trans-6-{4-[3-(3,5-dimethylpiperidino)propoxy]phenyl}-2,3,4,5-tetrahydropyridine]		
> 10	38 µM and 35 µM		C[C@@H]1C[C@@H](C)CN(CCCOc2ccc([C@H]3CC[C@@H](N(C)C)CC3)cc2)C1 (relative stereo) [Example 20, trans-1-{3-[4-(cis-4-dimethylaminocyclohex-1-yl)phenoxy]propyl}-3,5-dimethylpiperidine, dioxalate and trans-1-{3-[4-(trans-4-dimethylaminocyclohex-1-yl)-phenoxy]propyl}-3,5-dimethylpiperidine, dioxalate]		
13	3 µM		C[C@@H]1C[C@@H](C)CN(CCCOc2ccc(-c3ccccc3)cc2)C1 (relative stereo) [Example 22, trans-1-{3-[(biphenyl-4-yl)oxy]propyl}-3,5-dimethylpiperidine]		
> 10	> 1 µM		Cc1ccc(-c2ccc(OCCCN3C[C@@H](C)C[C@H](C)C3)cc2)cc1 (relative stereo) [Example 27, trans-3,5-dimethyl-1-{3-[(4′-methylbiphenyl-4-yl)oxy]propyl}piperidine]		
4	4 µM		C[C@@H]1C[C@@H](C)CN(CCCOc2ccc(-c3ccncc3)cc2)C1 (relative stereo) [Example 31, trans-3,5-dimethyl-1-{3-[4-(4-pyridyl)phenoxy]propyl}piperidine]		
3	7 µM		C[C@H]1C[C@H](C)CN(CCCOc2ccc(-n3cccc3)cc2)C1 (relative stereo) [Example 33, trans-3,5-dimethyl-1-{3-[4-(pyrrol-1-yl)phenoxy]propyl}piperidine]		
20		10	C[C@@H]1C[C@@H](C)CN(CCCOc2ccc(-c3cc[nH]n3)cc2)C1 (relative stereo) [Example 34, trans-3,5-dimethyl-1-{3-[4-(pyrazol-3-yl)phenoxy]propyl}piperidine]		
> 10	> 10 µM		N#CCc1ccc(OCCCN2CCCCC2)cc1 [Example 4]		
8	3 µM		C=CCC(O)(CC=C)c1ccc(OCCCN2CCCCC2)cc1 [Example 9, 1-{3-[4-(1-hydroxy-1-allylbut-3-enyl)phenoxy]propyl}piperidine]		
5	20 µM		C(=C\c1ccc(OCCCN2CCCCC2)cc1)/c1ccccc1 [Example 11, trans-1-{3-(4-styrylphenoxy)propyl]piperidine]		

IC50 [1, 5] [µM]	IC50 [2, 6]	IC50 ([2]; human, recombinant human CYP3A4, probe BFC, CYP3A4 cytochrome inhibition (IC50, concentrations in μM for 50% inhibition)) [µM]	Molecule	IC50 [1, 3] [µM]	IC50 [2, 4]
> 10	28 µM		C[C@H]1C[C@H](C)CN(CCCOc2ccc([C@H]3CC[C@H](N(C)C)CC3)cc2)C1 [Example 12, (3S,5S)-1-{3-[4-(trans-4-dimethylaminocyclohex-1-yl)phenoxy]propyl}-3,5-dimethylpiperidine]		
23	16 µM		c1ccc(COc2ccc(OCCCN3CCCCC3)cc2)cc1 [Example 13, 1-{3-[4-(benzyloxy)phenoxy]propyl}piperidine]		
> 10	> 10 µM		c1ccc(-c2ccc(OCCCN3CCCC3)cc2)cc1 [Example 21, 1-{3-[(biphenyl-4-yl)oxy]propyl}pyrrolidine]		
13	3 µM		C[C@H]1C[C@H](C)CN(CCCOc2ccc(-c3ccccc3)cc2)C1 [Example 23, (3S,5S)-1-{3-[(biphenyl-4-yl)oxy]propyl}-3,5-dimethylpiperidine]		
> 10	> 10 µM		COc1ccc(-c2ccc(OCCCN3CCCCC3)cc2)cc1 [Example 25, 1-{3-[(4′-methoxybiphenyl-4-yl)oxy]propyl}piperidine]		
7	11 µM		c1cc(-c2ccc(OCCCN3CCCCC3)cc2)ccn1 [Example 30]		
> 10	3 µM		c1cc(-c2ccc(OCCCN3CCOCC3)cc2)ccc1OCCCN1CCCCC1 [Example 36, 4-(3-{[4′-(3-piperidinopropoxy)biphenyl-4-yl]oxy}propyl)morpholine]		
> 10	30 µM		c1cc(-c2ccc(OCCCN3CCCC3)cc2)ccc1OCCCN1CCCC1 [Example 38, di-1,1′-{(biphenyl-4,4′-diyl)bis[oxy(propan-1,3-diyl)]}pyrrolidine]		
6	11 µM		C[C@H]1CCCN(CCCOc2ccc(-c3ccncc3)cc2)C1 [Example 39, (3S)-3-methyl-1-{3-[4-(4-pyridyl)phenoxy]propyl}piperidine]		
> 10	> 1 µM		C(=C\c1ccc(-c2ccc(OCCCN3CCCCC3)cc2)cc1)/CN1CCCCC1 [Example 44, (E)-1-(3-{[4′-(3-piperidinoprop-1-en-1-yl)biphenyl-4-yl]oxy}propyl)piperidine]		
79	5 µM		C(=C/c1ccc(-c2ccc(OCCCN3CCCCC3)cc2)cc1)/CN1CCCCC1 [Example 45, (Z)-1-(3-{[4′-(3-piperidinoprop-1-en-1-yl)biphenyl-4-yl]oxy}propyl)piperidine]		
> 100	12 µM		CN1CCN(c2ccc(-c3ccc(OCCCN4CCCCC4)cc3)cc2)CC1 [Example 46, 1-methyl-4-[4′-(3-piperidinopropoxy)biphenyl]piperazine]		
107	37 µM		CN(C)[C@H]1CC[C@@H](Cc2ccc(OCCCN3CCCCC3)cc2)CC1 [Example 47, 1-{3-[4-(cis-4-dimethylaminocyclohex-1-yl)methylphenoxy]propyl}piperidine]		
2	2 µM		c1cc(-c2ccc(OCCCN3CCCCC3)cc2)ccc1CCCN1CCCCC1 [Example 48]		
> 10	27 µM		C[C@H]1C[C@H](C)CN(CCCOc2ccc([C@H]3CC[C@H](N)CC3)cc2)C1 [Example 49, (3S,5S)-1-{3-[4-(trans-4-aminocyclohex-1-yl)phenoxy]propyl}-3,5-dimethylpiperidine]		
> 100	72 µM		C[C@H]1CCCN(CCCOc2ccc(-c3cc[n+]([O-])cc3)cc2)C1 [Example 51, (3S)-4-{4-[3-(3-methylpiperidin-1-yl)propoxy]phenyl}pyridine 1-oxide]		
64	57 µM		[O-][n+]1ccc(-c2ccc(OCCCN3CCCCC3)cc2)cc1 [Example 53, 4-[4-(3-piperidinopropoxy)phenyl]pyridine 1-oxide]		

Molecule	IC50 [1, 5] [µM]	IC50 [2, 6]	IC50 ([2]; human, recombinant human CYP3A4, probe BFC, CYP3A4 cytochrome inhibition (IC50, concentrations in μM for 50% inhibition)) [µM]	IC50 [1, 3] [µM]	IC50 [2, 4]
c1cc([C@H]2CC[C@H](N3CCCC3)CC2)ccc1OCCCN1CCCCC1 [Example 19, 1-{3-[4-(cis-4-tetramethylenaminocyclohex-1-yl)phenoxy]propyl}piperidine, dioxalate and 1-{3-[4-(trans-4-tetramethylenaminocyclohex-1-yl)phenoxy]propyl}-piperidine, dioxalate]	> 10	42 µM and 48 µM			
